Experimental data from patent US20070054886A1, “Ras antagonists for treating neurodegenerative disorders” (RAMOT AT TEL AVIV UNIVERSITY, LTD., priority 2003, published 2007).
Values joined by “and” are separate entries in the source; they are usually repeats but may differ in a detail not shown here. Identical values can stand only once.

What was measured:
[1] = tested on: rats subjected to closed head injury (CHI); test: Neuroprotection, rat CHI model (NSS); type: in vivo
Protocol: Sabra (strain of the Hebrew University) rats (200-220 gr) were used. A weight (200 g) was dropped on the cone fixed on the exposed skull at the site (frontal left cortex) designated for injury (from a height of 20 cm), resulting in a focal injury. A maximal Neurological Severity Score (NSS) of 17 indicates severe neurological dysfunction, with failure of all tasks, whereas a score of zero is achieved by healthy uninjured animals. The NSS at 1 h after trauma reflects the initial severity of injury and is inversely correlated with neurological outcome. […] To assess the effect of FTS on neurological recovery, rats were randomly assigned to either vehicle or FTS treatment, given immediately after the initial NSS evaluation (at 1 hr after CHI). These assessments were performed by an observer blinded to the kind of treatment the animals have received. The extent of recovery (ΔNSS) was calculated as the difference between NSS at 1 hr and that at any later time point: ΔNSS (at time t)=NSS (1 h)−NSS (t).
Thus, the greater ΔNSS reflects greater recovery, and this parameter serves as a tool for evaluation of drug effects.

[2] = tested on: NMDA receptors (NMDAR); test: NMDAR quantitative autoradiography ([3H]MK-801 binding) in brain sections of CHI mice; type: in vivo, mouse; conditions: seven days after CHI, FTS 5 mg/kg 1 hr after CHI
Protocol: Seven days after CHI, vehicle-treated (n=5) and FTS-treated (n=4) mice were decapitated and their brains were removed (within 1 minute), frozen in powdered dry ice, and kept at −70° C. until used. Consecutive 20-μ cryostat sections of the whole forebrain were cut in the coronal plane, and one in every ten sections (i.e. at intervals of 200μ) was thaw-mounted onto coated microscope glass slides.
NMDAR autoradiography was performed as described (Bowery et al., 1988), with some modifications. […] At the end of incubation, the sections were dipped for 5 seconds in ice-cold buffer, washed for 90 minutes in cold fresh buffer, and then dipped in ice-cold distilled water. The dried tissue sections were exposed to tritium-sensitive film accompanied by commercial calibrated tritium standard scales (Amersham). After exposure for 36 days, the films were developed in Kodak D-19, fixed, and dried. The sections were then stained with cresyl violet for anatomical region placement according to a mouse brain atlas (Paxinos and Franklin, 1997) and for identification of lesions.
The films were scanned and digitized using PhotoShop and a large bed Umax scanner, and saved in tiff format for accessibility to NIH image software. Using NIH Image routines, the standard curve was measured and used to calibrate regional brain measurements. Morphometry routines were used to measure the lesion area on each section where it was visible. The volume was calculated by multiplying the summed lesion areas by the distance between sections (0.2 mm).

[3] = tested on: phospho-ERK; test: ERK and phospho-ERK immunoblot in brains of CHI mice; type: in vivo, mouse; conditions: 2 hrs after CHI
Protocol: ERK and phospho-ERK were determined in 30 μg of brain extract proteins by immunoblotting, ECL, and densitometry (Paz et al., 2000). ERK immunoblots were incubated with 1:2000 rabbit anti-ERK1/2 Ab (Santa-Cruz) and then with 1:1000 peroxidase-goat anti rabbit IgG. Phospho-ERK immunoblots were incubated with 1:10,000 mouse anti-phospho-ERK Ab (Sigma) and then with 1:10,000 peroxidase-goat anti-mouse IgG.

[4] = tested on: Ras-GTP
Source text: The study was approved by the Institutional Animal Care Committee of Hadassah Medical Center and the Hebrew University. Sixty male C57bl mice weighing 25 to 35 g were used. CHI was induced under ether anesthesia, as previously described (Chen et al., 1996) and modified (Yatsiv et al., 2002). Briefly, after induction of ether anesthesia the skull was exposed by a midline longitudinal incision. A tipped Teflon cone was placed in the mid-coronal plane above the left anterior frontal area, 1 mm lateral to the midline. A weight (74 g) was dropped onto the cone (from a height of 15 cm), resulting in a focal injury. After trauma, animals received supporting oxygenation with 100% O2 for no longer than 2 min and were then returned to their cages. Sham-injured mice were anesthetized and their skin was incised, but they were not subjected to CHI.
In the first experiment mice were sacrificed 10, 30, or 120 min after sham-injury or CHI to assess levels of Ras=GTP and phospho=ERK. In the second set of experiments, the animals received FTS (5 mg/kg i.p.) or vehicle, 1 hr after CHI and sham-injured mice received the vehicle (n=4 per group). The mice were sacrificed 2 or 24 hrs after CHI, their brains were removed, and cortical tissue samples adjacent or contra-lateral to the site of injury were homogenized in homogenization buffer containing protease inhibitors and 0.5% Triton X100 as described (Haklai et al., 1998). Debris was removed by centrifugation and protein in the extract was determined with the aid of the Bio-Rad protein assay (Bio-Rad Laboratories, GmbH). Total Ras protein was determined by Western immunoblotting of 30 μg of protein with 1:2500 pan-Ras Ab (Oncogene Research Products, followed by 1:7500 peroxidase goat anti-mouse IgG (Haklai et al., 1998). For determination of GTP-bound Ras in protein samples (1 mg), Ras-GTP was pulled down by glutathione-S-transferase fused to the Ras-binding domain of Raf (GST-RBD) which binds Ras-GTP only. The GST-RBD-Ras-GTP was pulled down with glutathione-agarose beads, and Ras was then determined by immunoblotting with pan-Ras Ab as described above, followed by enhanced chemiluminescence (ECL; Amersham Pharmacia Biotech, Piscataway, N.J., U.S.A) (Paz et al., 2000). The bands were quantified by densitometry with Image Master VDS-CL (Amersham Biotech) using TINA 2.0 software (Ray Tests).

[5] = FTS 5 mg/kg bw ip 1 h after CHI, mean ± SD of 7 rats
[6] = left (ipsilateral) hemisphere, mean ± SD, 4 mice
[7] = right (contra-lateral) hemisphere, mean ± SD, 4 mice
[8] = 2 hrs after CHI, drug i.p. 1 hr after CHI, FTS 5 mg/kg, MK-801 0.5 mg/kg or 1 mg/kg, mean±SD

## CC(C)=CCC/C(C)=C/CC/C(C)=C/CSc1ccccc1C(=O)O [FTS, farnesyl-thiosalicylic acid]
[1]; 1 h after CHI, before treatment (baseline), maximal score 17, mean ± SD of 7 rats
  Neurological Severity Score (NSS) 1 h: 9.71 ± 1.97
[1]; [5]
  ΔNSS = NSS (1 h) − NSS (time), 24 h: 1.86 ± 1.34
  ΔNSS = NSS (1 h) − NSS (time), 3 d: 3.00 ± 1.29
[1]; FTS 5 mg/kg bw ip 1 h after CHI, mean ± SD of 7 rats, p = 0.019 vs control
  ΔNSS = NSS (1 h) − NSS (time), 7 d: 5.14 ± 1.07
[2]; ANOVA, no significant difference between sides (P=0.5)
  effect of trauma on the binding of [3H]-MK-801 to the NMDA receptors: completely reversed
[2]; [6]
  NMDA-receptor density, dorsal striatum, left: 4.32 ± 0.32 nCi of [^3H]-MK-801 specifically bound/mg
  NMDA-receptor density, frontal motor cortex, left: 6.32 ± 2.12 nCi of [^3H]-MK-801 specifically bound/mg
  NMDA-receptor density, hippocampus CA1, left: 9.85 ± 1.34 nCi of [^3H]-MK-801 specifically bound/mg
  NMDA-receptor density, hippocampus CA3, left: 7.69 ± 0.96 nCi of [^3H]-MK-801 specifically bound/mg
  NMDA-receptor density, parietal cortex, left: 5.69 ± 1.18 nCi of [^3H]-MK-801 specifically bound/mg
  NMDA-receptor density, perirhinal cortex, left: 5.92 ± 0.72 nCi of [^3H]-MK-801 specifically bound/mg
  NMDA-receptor density, piriform cortex, left: 5.65 ± 1.54 nCi of [^3H]-MK-801 specifically bound/mg
  NMDA-receptor density, ventral striatum, left: 4.06 ± 1.82 nCi of [^3H]-MK-801 specifically bound/mg
[2]; [7]
  NMDA-receptor density, dorsal striatum, right: 5.45 ± 1.72 nCi of [^3H]-MK-801 specifically bound/mg
  NMDA-receptor density, frontal motor cortex, right: 6.63 ± 1.7 nCi of [^3H]-MK-801 specifically bound/mg
  NMDA-receptor density, hippocampus CA1, right: 9.25 ± 0.32 nCi of [^3H]-MK-801 specifically bound/mg
  NMDA-receptor density, hippocampus CA3, right: 7.23 ± 0.42 nCi of [^3H]-MK-801 specifically bound/mg
  NMDA-receptor density, parietal cortex, right: 7.04 ± 1.46 nCi of [^3H]-MK-801 specifically bound/mg
  NMDA-receptor density, perirhinal cortex, right: 5.97 ± 0.88 nCi of [^3H]-MK-801 specifically bound/mg
  NMDA-receptor density, piriform cortex, right: 5.57 ± 0.84 nCi of [^3H]-MK-801 specifically bound/mg
  NMDA-receptor density, ventral striatum, right: 5.21 ± 0.54 nCi of [^3H]-MK-801 specifically bound/mg
[3]
  effect on amounts of total ERK: Neither inhibitor altered
[3]; drug i.p. 1 hr after CHI, FTS 5 mg/kg, MK-801 0.5 mg/kg or 1 mg/kg
  inhibition (reduction) of phospho-ERK, right (contra-lateral) hemisphere: 73.2±8.3% and 73±8%
[4]; [8]
  inhibition of the CHI-induced increase in Ras-GTP, left (contused) hemisphere: 81.7±10.0% and 75.2±6.8% and 82% and 82±10%
  inhibition of the CHI-induced increase in Ras-GTP, right (contra-lateral) hemisphere: 70.4±12.0% and 67.2±7.1% and 70±12%
[4]; CHI mice, 2 hrs after CHI
  inhibition of Ras-GTP, range over both hemispheres: 70-82%
[4]; FTS 5 mg/kg i.p. 1 hr after CHI
  effect on the total amount of Ras in the brain: no effect
[4]; FTS 5 mg/kg i.p. 1 hr after CHI, assessed 24 hrs after CHI
  effect on Ras-GTP levels 24 hrs after CHI: almost no effect
